{"source": "patent US6171829A", "about": "“Physiologically active substance PF1191 and process for producing the same” (Meiji Seika Kaisha, Ltd., priority 1997, dated 2001)", "key": {"[1]": {"tested_on": "primarily cultured chick telencephalon nerve cells", "conditions": "Neuroscience Letters, vol. 139, 205-208 (1992); result in words; cited from earlier work"}, "[2]": {"tested_on": "primarily cultured nerve cells of chick telencephalon", "experiment": "Inhibitory activity to kainic acid toxicity, primarily cultured nerve cells of chick telencephalon", "format": "cell-based", "method": "(§1) The inhibitory activities to kainic acid toxicity of the substance PF1191 on primarily cultured nerve cells of chick telencephalon and rat hippocampus were examined. The test with the use of the primarily cultured nerve cells of chick telencephalon was carried out in accordance with the method reported in Neuroscience Letters, vol. 139, 205-208 […], while the test with the use of the primarily cultured nerve cells of rat hippocampus was carried out in accordance with the method reported in Brain Research, 126(1977) 397-425.\n(§2) The molar concentration at which the cytotoxicity caused by the addition of 500 μM of kainic acid to the cultured cells was inhibited at a ratio of 50% was expressed in EC50 (effective concentration-fifty) in Table 1 below."}, "[3]": {"tested_on": "primarily cultured nerve cells of rat hippocampus", "experiment": "Inhibitory activity to kainic acid toxicity, primarily cultured nerve cells of rat hippocampus", "format": "cell-based", "method": "as §1, §2"}}, "note": "pEC50: −log10 of the molar value. Entries after “also recorded” stand apart in the source; their conditions may differ."}
{"smiles": "N#Cc1cc2[nH]c(=O)c(=O)[nH]c2cc1[N+](=O)[O-]", "note": "[CNQX, 6-cyano-7-nitroquinoxaline-2,3-dione]", "values": [{"measurement": "inhibition of kainic acid toxicity by non-NMDA receptor antagonists", "setting": "[1]", "value": "inhibited"}]}
{"smiles": "O=c1[nH]c2cc([N+](=O)[O-])c([N+](=O)[O-])cc2[nH]c1=O", "note": "[DNQX, 6,7-dinitroquinoxaline-2,3-dione]", "values": [{"measurement": "inhibition of kainic acid toxicity by non-NMDA receptor antagonists", "setting": "[1]", "value": "inhibited"}]}
{"smiles": "NS(=O)(=O)c1cccc2c1c([N+](=O)[O-])cc1[nH]c(=O)c(=O)[nH]c12", "note": "[NBQX, 6-nitro-7-sulfamoylbenzo[f]quinoxaline-2,3-dione]", "values": [{"measurement": "inhibition of kainic acid toxicity by non-NMDA receptor antagonists", "setting": "[1]", "value": "inhibited"}]}
{"smiles": "NC(C(=O)O)C(O)C1(C(=O)O)CCC(CC(NC(=O)c2cc(Cl)c(O)c(Cl)c2)C(=O)O)N1", "note": "(centres unmarked) [Substance PF1191]", "values": [{"measurement": "pEC50", "setting": "[2]; Gallus gallus, chick telencephalon nerve cells + kainic acid (500 μM), read-out: 50% Effective conc. (EC50), inhibitory activity to kainic acid toxicity", "value": 5.82}, {"measurement": "inhibitory activity to kainic acid toxicity in comparison with DNQX", "setting": "[2]; chick telencephalon nerve cells, kainic acid 500 μM, result in words", "value": "stronger inhibitory activity to kainic acid toxicity than that of DNQX; also recorded: stronger inhibitory activity to kainic acid toxicity in comparison with the known substance DNQX"}, {"measurement": "pEC50", "setting": "[3]; rat hippocampus nerve cells + kainic acid (500 μM), read-out: 50% Effective conc. (EC50), inhibitory activity to kainic acid toxicity", "value": 6.35}, {"measurement": "inhibitory activity to kainic acid toxicity in comparison with DNQX", "setting": "[3]; rat hippocampus nerve cells, kainic acid 500 μM, result in words", "value": "stronger inhibitory activity to kainic acid toxicity in comparison with the known substance DNQX"}]}
{"smiles": "C=C(C)[C@H]1CN[C@H](C(=O)O)[C@H]1CC(=O)O", "note": "[kainic acid]", "values": [{"measurement": "toxicity to primarily cultured chick telencephalon nerve cells", "setting": "[1]", "value": "toxic"}]}
